Test results from ChEMBL document CHEMBL1240295, “Specificity and mechanism of action of some commonly used protein kinase inhibitors” (Biochem J, 2000).

What was measured:
[1] = target: [Pyruvate dehydrogenase (acetyl-transferring)] kinase isozyme 1, mitochondrial (Homo sapiens) (UniProt Q15118); test: Inhibition of His-tagged human PDK1 expressed in Sf21 cells at 50 uM; details: values are per cent of control
[2] = target: Rho-associated protein kinase 2 (Rattus norvegicus) (UniProt Q62868); test: Inhibition of rat ROCK2 expressed in Sf9 cells at 50 uM; details: values are per cent of control
Rattus norvegicus [3] = species: Rattus norvegicus; test: Inhibition of rat liver AMPK at 50 uM; values are per cent of control
Bos taurus [4] = species: Bos taurus; test: Inhibition of bovine heart PKA at 50 uM; values are per cent of control
Oryctolagus cuniculus [5] = species: Oryctolagus cuniculus; test: Inhibition of PHK from rabbit skeletal muscle at 50 uM; values are per cent of control; details: Muscle tissue
Oryctolagus cuniculus [6] = species: Oryctolagus cuniculus; test: Inhibition of MAPKAPK1b from rabbit skeletal muscle at 50 uM; values are per cent of control; details: Muscle tissue
[7] = target: RAC-alpha serine/threonine-protein kinase (Homo sapiens) (UniProt P31749); test: Inhibition of human PKBalpha expressed in SF9 cells at 50 uM; values are per cent of control
Oryctolagus cuniculus [8] = species: Oryctolagus cuniculus; test: Inhibition of rabbit MKK1 expressed in Escherichia coli at 50 uM; values are per cent of control
[9] = target: T1, Serine/threonine-protein kinase Sgk1 (Homo sapiens) (UniProt O00141); test: Inhibition of His-tagged human SGK expressed in Sf9 cells at 50 uM; values are per cent of control
T1 sequence (whole entry): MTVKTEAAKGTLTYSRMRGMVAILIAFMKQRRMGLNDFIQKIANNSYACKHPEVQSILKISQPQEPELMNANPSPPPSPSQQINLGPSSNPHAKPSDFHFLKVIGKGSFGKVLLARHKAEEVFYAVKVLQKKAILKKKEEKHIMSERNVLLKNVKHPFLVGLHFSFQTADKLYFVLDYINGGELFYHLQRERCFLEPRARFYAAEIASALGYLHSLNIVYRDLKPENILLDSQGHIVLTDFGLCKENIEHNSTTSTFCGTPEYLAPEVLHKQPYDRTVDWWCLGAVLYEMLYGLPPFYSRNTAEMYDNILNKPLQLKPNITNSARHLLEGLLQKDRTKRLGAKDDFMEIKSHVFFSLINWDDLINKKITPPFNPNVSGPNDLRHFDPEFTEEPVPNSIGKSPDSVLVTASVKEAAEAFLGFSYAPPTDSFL

[10] = target: T2, Casein kinase II (Homo sapiens) (UniProt P67870+P68400+P19784); test: Inhibition of His-tagged human CK2 expressed in Sf9 cells at 50 uM; values are per cent of control
[11] = target: T3, Ribosomal protein S6 kinase alpha-5 (Homo sapiens, UniProt O75582); test: Inhibition of His-tagged human MSK1 expressed in Sf9 cells at 50 uM; values are per cent of control
[12] = target: Glycogen synthase kinase-3 beta (Homo sapiens, UniProt P49841); test: Inhibition of His-tagged human GSK3b expressed in Sf21 cells at 50 uM; values are per cent of control
[13] = target: T4, Ribosomal protein S6 kinase beta-1 (Homo sapiens, UniProt P23443); test: Inhibition of His-tagged human S6K1 expressed in Escherichia coli at 50 uM; values are per cent of control
[14] = target: T5, Serine/threonine-protein kinase Chk1 (Homo sapiens) (UniProt O14757); test: Inhibition of His-tagged human CHK1 expressed in Escherichia coli at 50 uM; values are per cent of control
T5 sequence (whole entry): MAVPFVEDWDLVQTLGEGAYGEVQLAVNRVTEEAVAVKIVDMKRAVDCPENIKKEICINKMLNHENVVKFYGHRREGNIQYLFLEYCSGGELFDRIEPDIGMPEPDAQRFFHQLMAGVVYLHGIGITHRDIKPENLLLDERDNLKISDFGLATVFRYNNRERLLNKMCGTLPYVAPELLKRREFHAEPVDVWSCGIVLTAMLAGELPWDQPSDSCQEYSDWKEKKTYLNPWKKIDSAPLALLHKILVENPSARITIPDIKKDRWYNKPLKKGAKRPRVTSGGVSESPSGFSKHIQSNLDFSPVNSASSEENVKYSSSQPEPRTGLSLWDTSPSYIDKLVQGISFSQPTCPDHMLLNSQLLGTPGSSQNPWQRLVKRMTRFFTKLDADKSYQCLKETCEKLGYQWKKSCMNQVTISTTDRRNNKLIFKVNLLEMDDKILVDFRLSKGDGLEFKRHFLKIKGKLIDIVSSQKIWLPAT

[15] = target: MAP kinase-activated protein kinase 2 (Homo sapiens, UniProt P49137); test: Inhibition of His-tagged human MAPKAPK2 expressed in Escherichia coli at 50 uM; values are per cent of control
[16] = target: Protein kinase C alpha type (Homo sapiens, UniProt P17252); test: Inhibition of His-tagged human PKCalpha expressed in Escherichia coli at 50 uM; values are per cent of control
[17] = target: Mitogen-activated protein kinase 1 (Homo sapiens) (UniProt P28482); test: Inhibition of His-tagged human MAPK2/ERK2 expressed in Escherichia coli at 50 uM; values are per cent of control
[18] = target: Mitogen-activated protein kinase 14 (Homo sapiens) (UniProt Q16539); test: Inhibition of His-tagged human SAPK2a/p38 expressed in Escherichia coli at 50 uM; values are per cent of control
[19] = target: Mitogen-activated protein kinase 11 (Homo sapiens) (UniProt Q15759); test: Inhibition of His-tagged human SAPK2b/p38b2 expressed in Escherichia coli at 50 uM; values are per cent of control
[20] = target: Mitogen-activated protein kinase 8 (Homo sapiens) (UniProt P45983); test: Inhibition of His-tagged human JNK1a1/SAPK1c expressed in Escherichia coli at 50 uM; values are per cent of control
[21] = target: T6, Mitogen-activated protein kinase 12 (Homo sapiens) (UniProt P53778); test: Inhibition of His-tagged human SAPK3/p38gamma expressed in Escherichia coli at 50 uM; values are per cent of control
T6 sequence (whole entry): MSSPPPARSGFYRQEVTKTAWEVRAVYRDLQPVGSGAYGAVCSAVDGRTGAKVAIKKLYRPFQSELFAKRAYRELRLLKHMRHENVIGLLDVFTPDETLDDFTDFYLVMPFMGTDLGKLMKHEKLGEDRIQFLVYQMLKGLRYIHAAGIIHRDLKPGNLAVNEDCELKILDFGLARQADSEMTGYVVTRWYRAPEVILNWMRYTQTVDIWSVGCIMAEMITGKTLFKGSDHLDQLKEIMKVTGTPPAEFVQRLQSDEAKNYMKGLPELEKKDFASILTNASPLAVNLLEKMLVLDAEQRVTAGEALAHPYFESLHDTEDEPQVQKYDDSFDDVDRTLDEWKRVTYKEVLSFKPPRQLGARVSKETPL

[22] = target: T7, Mitogen-activated protein kinase 13 (Homo sapiens) (UniProt O15264); test: Inhibition of His-tagged human SAPK4/p38delta expressed in Escherichia coli at 50 uM; values are per cent of control
T7 sequence (whole entry): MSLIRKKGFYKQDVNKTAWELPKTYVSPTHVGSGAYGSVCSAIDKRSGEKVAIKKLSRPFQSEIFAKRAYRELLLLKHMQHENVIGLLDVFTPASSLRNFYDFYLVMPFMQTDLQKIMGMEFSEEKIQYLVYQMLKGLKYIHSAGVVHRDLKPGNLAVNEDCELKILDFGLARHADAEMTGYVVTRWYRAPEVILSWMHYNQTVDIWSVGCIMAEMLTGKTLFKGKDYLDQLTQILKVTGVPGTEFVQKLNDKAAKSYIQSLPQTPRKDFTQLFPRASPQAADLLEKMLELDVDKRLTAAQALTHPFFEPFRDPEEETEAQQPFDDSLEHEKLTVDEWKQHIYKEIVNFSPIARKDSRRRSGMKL

[23] = target: T7, Mitogen-activated protein kinase 13 (Homo sapiens); test: Inhibition of His-tagged human SAPK4/p38delta expressed in Escherichia coli at 20 uM; details: values are per cent of control
[24] = target: T2, Casein kinase II (Homo sapiens); test: Inhibition of His-tagged human CK2 expressed in Sf9 cells at 20 uM; details: values are per cent of control
[25] = target: Serine/threonine-protein kinase N2 (Homo sapiens) (UniProt Q16513); details: HEK293, 20 uM
Description: Inhibition of His-tagged human PRK2 expressed in HEK293 cells at 20 uM

Rattus norvegicus [26] = species: Rattus norvegicus; test: Inhibition of rat liver AMPK at 20 uM; values are per cent of control
Bos taurus [27] = species: Bos taurus; test: Inhibition of bovine heart PKA at 20 uM; values are per cent of control
Oryctolagus cuniculus [28] = species: Oryctolagus cuniculus; test: Inhibition of PHK from rabbit skeletal muscle at 20 uM; values are per cent of control; details: Muscle tissue
[29] = target: T3, Ribosomal protein S6 kinase alpha-5; test: Inhibition of His-tagged human MSK1 expressed in Sf9 cells at 20 uM; values are per cent of control
[30] = target: T4, Ribosomal protein S6 kinase beta-1; test: Inhibition of His-tagged human S6K1 expressed in Escherichia coli at 20 uM; values are per cent of control
[31] = target: T5, Serine/threonine-protein kinase Chk1 (Homo sapiens); test: Inhibition of His-tagged human CHK1 expressed in Escherichia coli at 20 uM; values are per cent of control
[32] = target: Mitogen-activated protein kinase 11 (Homo sapiens) (UniProt Q15759); test: Inhibition of His-tagged human SAPK2b/p38b2 expressed in Escherichia coli at 20 uM; values are per cent of control
[33] = target: Mitogen-activated protein kinase 8 (Homo sapiens) (UniProt P45983); test: Inhibition of His-tagged human JNK1a1/SAPK1c expressed in Escherichia coli at 20 uM; values are per cent of control

T3 sequence (O75582 whole entry, looked up): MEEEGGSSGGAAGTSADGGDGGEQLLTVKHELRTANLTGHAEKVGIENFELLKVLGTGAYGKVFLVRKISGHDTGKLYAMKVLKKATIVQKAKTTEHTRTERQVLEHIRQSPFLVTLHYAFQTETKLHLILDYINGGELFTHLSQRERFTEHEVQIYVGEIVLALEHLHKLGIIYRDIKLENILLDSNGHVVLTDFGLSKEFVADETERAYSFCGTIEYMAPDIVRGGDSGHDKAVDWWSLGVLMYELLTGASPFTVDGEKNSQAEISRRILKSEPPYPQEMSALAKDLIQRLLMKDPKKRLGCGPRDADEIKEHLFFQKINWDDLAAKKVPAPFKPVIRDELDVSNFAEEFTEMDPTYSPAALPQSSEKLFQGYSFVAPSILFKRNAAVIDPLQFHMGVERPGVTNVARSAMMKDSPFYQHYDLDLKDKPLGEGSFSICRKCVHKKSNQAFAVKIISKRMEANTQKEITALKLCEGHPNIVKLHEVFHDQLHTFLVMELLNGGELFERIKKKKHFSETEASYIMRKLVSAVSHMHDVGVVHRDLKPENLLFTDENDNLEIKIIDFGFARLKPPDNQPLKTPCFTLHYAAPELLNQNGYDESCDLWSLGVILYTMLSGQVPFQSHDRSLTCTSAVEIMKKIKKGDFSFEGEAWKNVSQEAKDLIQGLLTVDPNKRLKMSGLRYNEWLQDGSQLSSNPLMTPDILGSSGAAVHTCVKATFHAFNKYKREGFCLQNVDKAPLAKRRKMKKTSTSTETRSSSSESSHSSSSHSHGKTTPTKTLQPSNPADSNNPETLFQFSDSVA
T4 sequence (P23443 whole entry, looked up): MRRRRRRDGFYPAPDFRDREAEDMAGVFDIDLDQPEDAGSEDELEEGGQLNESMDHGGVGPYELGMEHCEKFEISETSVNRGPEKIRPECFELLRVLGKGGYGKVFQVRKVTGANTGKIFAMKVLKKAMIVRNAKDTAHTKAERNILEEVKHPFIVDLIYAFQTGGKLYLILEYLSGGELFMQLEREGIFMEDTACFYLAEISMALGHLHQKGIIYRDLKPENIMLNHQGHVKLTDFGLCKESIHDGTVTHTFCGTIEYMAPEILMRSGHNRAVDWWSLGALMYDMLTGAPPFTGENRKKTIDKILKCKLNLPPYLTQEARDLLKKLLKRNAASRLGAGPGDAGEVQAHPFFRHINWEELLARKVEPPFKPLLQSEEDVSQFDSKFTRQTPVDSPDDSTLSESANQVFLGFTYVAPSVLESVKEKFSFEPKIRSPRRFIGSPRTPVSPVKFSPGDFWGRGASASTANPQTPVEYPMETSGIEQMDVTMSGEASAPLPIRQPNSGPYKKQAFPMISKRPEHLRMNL
Sequence of Mitogen-activated protein kinase 8 (Homo sapiens) (P45983 whole entry): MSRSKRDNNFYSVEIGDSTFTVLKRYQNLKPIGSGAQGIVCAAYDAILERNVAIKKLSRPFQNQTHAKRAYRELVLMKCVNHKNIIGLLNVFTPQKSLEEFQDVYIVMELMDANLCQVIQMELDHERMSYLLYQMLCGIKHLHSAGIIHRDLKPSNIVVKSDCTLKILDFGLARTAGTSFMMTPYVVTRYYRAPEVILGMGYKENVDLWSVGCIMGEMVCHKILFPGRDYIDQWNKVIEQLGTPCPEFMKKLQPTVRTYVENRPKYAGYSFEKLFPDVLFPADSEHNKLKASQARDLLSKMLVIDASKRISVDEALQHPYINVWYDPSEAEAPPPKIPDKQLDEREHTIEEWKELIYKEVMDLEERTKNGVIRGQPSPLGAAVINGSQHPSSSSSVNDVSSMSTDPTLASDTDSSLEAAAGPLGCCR
Sequence of Mitogen-activated protein kinase 11 (Homo sapiens) (Q15759 whole entry): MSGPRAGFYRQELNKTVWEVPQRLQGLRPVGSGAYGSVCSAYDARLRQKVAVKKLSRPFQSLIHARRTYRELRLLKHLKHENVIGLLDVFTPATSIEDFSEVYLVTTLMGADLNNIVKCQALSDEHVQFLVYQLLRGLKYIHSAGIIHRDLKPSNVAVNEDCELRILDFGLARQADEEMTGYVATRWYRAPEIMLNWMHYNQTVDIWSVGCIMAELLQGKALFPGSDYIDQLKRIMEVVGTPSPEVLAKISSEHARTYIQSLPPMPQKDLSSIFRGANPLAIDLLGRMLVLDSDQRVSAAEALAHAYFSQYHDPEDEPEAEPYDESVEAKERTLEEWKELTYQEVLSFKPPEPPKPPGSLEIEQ
Sequence of Serine/threonine-protein kinase N2 (Homo sapiens) (Q16513 whole entry, looked up): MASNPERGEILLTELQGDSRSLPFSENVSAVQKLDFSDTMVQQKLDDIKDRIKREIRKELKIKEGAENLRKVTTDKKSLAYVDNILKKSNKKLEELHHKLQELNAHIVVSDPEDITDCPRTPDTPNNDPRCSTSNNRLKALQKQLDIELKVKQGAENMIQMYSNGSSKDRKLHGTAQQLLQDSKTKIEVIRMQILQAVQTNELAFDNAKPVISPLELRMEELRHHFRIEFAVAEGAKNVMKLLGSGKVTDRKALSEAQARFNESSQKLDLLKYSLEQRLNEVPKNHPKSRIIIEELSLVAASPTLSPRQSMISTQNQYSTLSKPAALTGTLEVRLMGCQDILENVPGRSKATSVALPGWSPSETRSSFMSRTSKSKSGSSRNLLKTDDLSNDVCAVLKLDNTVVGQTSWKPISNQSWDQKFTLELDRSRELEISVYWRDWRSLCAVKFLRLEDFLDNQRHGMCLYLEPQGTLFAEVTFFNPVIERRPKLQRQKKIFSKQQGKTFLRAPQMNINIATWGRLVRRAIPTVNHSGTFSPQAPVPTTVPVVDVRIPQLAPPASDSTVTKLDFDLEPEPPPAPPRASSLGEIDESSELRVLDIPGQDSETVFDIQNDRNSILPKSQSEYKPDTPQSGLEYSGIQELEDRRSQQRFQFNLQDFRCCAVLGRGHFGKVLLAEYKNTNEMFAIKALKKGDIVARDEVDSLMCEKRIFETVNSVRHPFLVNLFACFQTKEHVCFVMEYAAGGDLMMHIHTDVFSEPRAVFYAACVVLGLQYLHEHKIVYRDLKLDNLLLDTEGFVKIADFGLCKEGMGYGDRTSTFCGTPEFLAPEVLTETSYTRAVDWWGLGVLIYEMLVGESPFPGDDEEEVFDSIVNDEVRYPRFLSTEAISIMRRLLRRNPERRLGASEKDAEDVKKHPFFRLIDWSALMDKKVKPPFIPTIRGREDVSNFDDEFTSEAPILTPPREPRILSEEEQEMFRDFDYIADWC
Sequence of MAP kinase-activated protein kinase 2 (P49137 whole entry, looked up): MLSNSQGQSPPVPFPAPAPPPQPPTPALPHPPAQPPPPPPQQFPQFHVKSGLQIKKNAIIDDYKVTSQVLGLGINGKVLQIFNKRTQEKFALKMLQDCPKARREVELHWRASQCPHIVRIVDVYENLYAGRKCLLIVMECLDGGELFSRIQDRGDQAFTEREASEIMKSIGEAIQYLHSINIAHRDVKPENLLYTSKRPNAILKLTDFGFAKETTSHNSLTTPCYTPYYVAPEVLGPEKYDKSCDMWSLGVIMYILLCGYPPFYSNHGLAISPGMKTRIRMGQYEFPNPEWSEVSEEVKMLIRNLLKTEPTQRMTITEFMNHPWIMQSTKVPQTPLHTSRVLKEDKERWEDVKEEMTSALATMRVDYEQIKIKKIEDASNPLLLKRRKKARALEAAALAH
Sequence of Mitogen-activated protein kinase 1 (Homo sapiens) (P28482 whole entry): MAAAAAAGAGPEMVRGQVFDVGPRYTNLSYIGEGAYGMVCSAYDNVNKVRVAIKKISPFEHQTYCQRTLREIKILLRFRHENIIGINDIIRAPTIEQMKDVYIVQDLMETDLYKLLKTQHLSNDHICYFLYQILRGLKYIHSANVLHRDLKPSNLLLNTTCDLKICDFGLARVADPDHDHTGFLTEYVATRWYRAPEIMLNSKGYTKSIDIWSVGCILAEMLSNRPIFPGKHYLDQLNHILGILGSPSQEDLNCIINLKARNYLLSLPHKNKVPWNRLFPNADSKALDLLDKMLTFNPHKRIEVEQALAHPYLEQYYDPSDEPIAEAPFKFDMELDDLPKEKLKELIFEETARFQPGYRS
Sequence of RAC-alpha serine/threonine-protein kinase (Homo sapiens) (P31749 whole entry): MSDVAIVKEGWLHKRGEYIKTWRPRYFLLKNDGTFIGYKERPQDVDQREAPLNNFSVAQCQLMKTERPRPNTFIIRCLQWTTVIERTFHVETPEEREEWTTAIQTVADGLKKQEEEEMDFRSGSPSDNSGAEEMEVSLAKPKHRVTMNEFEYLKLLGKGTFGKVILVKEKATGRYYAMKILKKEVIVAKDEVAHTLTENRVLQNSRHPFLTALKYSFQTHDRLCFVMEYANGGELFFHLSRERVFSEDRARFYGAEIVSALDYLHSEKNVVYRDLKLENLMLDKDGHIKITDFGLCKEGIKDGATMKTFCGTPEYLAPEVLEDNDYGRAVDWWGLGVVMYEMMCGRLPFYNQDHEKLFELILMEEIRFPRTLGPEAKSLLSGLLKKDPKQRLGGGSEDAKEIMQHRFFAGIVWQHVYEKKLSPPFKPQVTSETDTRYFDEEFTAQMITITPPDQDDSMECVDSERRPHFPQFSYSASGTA

COc1cccc(-c2cc(=O)c3ccccc3o2)c1N
residual activity [1]: 86%
residual activity [2]: 80%
residual activity (Rattus norvegicus [3]): 97%
residual activity (Bos taurus [4]): 106%
level, % of control (Oryctolagus cuniculus [5]): 87%
level, % of control (Oryctolagus cuniculus [6]): 93%
residual activity [7]: 82%
residual activity (Oryctolagus cuniculus [8]): 89%
residual activity [9]: 90%
residual activity [10]: 87%
residual activity [11]: 86%
residual activity [12]: 101%
residual activity [13]: 100%
residual activity [14]: 99%
residual activity [15]: 95%
residual activity [16]: 93%
residual activity [17]: 85%
residual activity [18]: 85%
residual activity [19]: 95%
residual activity [20]: 111%
residual activity [21]: 96%
residual activity [22]: 94%

O=S(=O)(c1cccc2cnccc12)N1CCCNCC1
residual activity [23]: 103%
residual activity [24]: 102%
inhibition [25]: 15%
residual activity (Rattus norvegicus [26]): 77%
residual activity (Bos taurus [27]): 35%
level, % of control (Oryctolagus cuniculus [28]): 58%
residual activity [29]: 19%
residual activity [30]: 32%
residual activity [31]: 82%
residual activity [32]: 97%
residual activity [33]: 96%
